Data from US20250312296A1, “PETROLATUM-BASED PHMB COMPOSITIONS AND METHODS FOR THE TREATMENT OF INFLAMMATORY SKIN DISEASE” (GLOBAL HEALTH SOLUTIONS, INC., priority 2020, published 2025).
Values joined by “and” are separate entries in the source; they are usually repeats but may differ in a detail not shown here. Equal values may be shown once.

Test system: Rabbit Skin
Experiment: Rabbit skin irritation
Protocol: Within 24 hours to 4 hours before test application, the backs of female albino New Zealand White rabbits were clipped free of hair, exposing 2 test and 2 control areas on each side of the spine with a size of approximately 15 cm×15 cm. The two test sites are located on the left cranial section and the right caudal section of the dorsal region. The two control sites are located on the left caudal and right cranial section of the dorsal region. FIG. 4 depicts the arrangement of test and control sites. The exposed skin is wiped with alcohol and dried. Rabbits of acceptable skin quality were selected and used for testing.
A 25×25 mm gauze patch saturated with 0.5 mL of 0.9% NaCl is used for the control and applied to the clipped control sites. The patches are secured using hypoallergenic, waterproof, surgical tape over the test and control sites. The animal's trunk is securely wrapped so as to maintain the position of the patches. Patches are left applied for a minimum of four hours.
After patch removal, the test and control sites were then scored for erythema and edema at 1, 24, 48 and 72 hours after patch removal. Only the 24, 48, and 72 hour observations were scored and used for calculations. If no response was expected, testing was conducted using three animals per test article. If irritation was anticipated, one animal was tested initially. If the first animal received a score of 2 or less for either erythema or edema, 2 additional rabbits were used to conclude the test.
This total was divided by the total number of observations. The same was done for the control sites. […] These scores for each animal were added and divided by the total number of animals to give the Primary Irritation Index. […] For any response, the Maximum Irritation Response, the time of onset of the response and the time of maximum response was recorded.
To positively validate the test, 10% sodium dodecyl sulfate (SDS), which is a known dermal irritant, in petroleum jelly was applied to a 2.5 cm×2.5 cm gauze patch. As a negative control, 0.5 mL of 0.9% NaCl was applied to a 2.5 cm×2.5 cm gauze patch. A Primary Irritation Index in the moderate to severe range is considered a positive result. The test system and methods utilized were the same as described above.

[1] = per rabbit, scores of 24, 48 and 72 hour observations added, patch at least four hours, sulfate

CCCCCCCCCCCCOS(=O)(=O)[O-].[Na+] [10% SDS, sodium dodecyl sulfate]
Primary Irritation Index (3 animals, 0-0.4 Negligible, 0.5-1.9 Slight, 2-4.9 Moderate, 5-8 Severe): Total Average (19.3) = 6.4 Primary Irritation Index | ED (edema) score [1]: 19 and 21 and 14 | ER (erythema) score [1]: 21 and 23 and 18 | ER + ED = Total (per rabbit, scores of 24, 48 and 72 hour observations added, sulfate): 40 and 44 and 32
